Earlier results in patent US20040048791A1, “Method for treating neoplastic cells using cycloprodigiosin or salt thereof” (priority 2002, published 2004).
Structures can show the parent of a compound that is named as a salt.

Test system: NF-κB
Settings: earlier abstract of the inventors (Kamata et al., 2000); cited from earlier work

COC1=CC(c2ccc[nH]2)=N/C1=C\c1[nH]c(C)c2c1C(C)CCC2 (stereo not shown) [cPrG-HCl, Cycloprodigiosin hydrochloride]
nuclear translocation of NF-κB: no suppressive effect
